In publication PMC4818977 (ChemMedChem, 2016):
Where two headings read alike, the source gives them in different places.

Legend:
FimH lectin domain = FimH lectin domain (Escherichia coli, UniProt P08191); set-up: species or system uropathogenic E. coli (UPEC); conditions: melting temperature of FimH lectin domain, relative binding strength
FimH = FimH (Escherichia coli, UniProt Q1R2J4); assay type: cell-based, uropathogenic E. coli (UPEC) strain UTI89; conditions: for HAI: hemagglutination inhibition titer (EC>90, Figure 5 legend)
UPEC biofilm formation = assay: biofilm prevention assay; assay type: cell-based, uropathogenic E. coli (UPEC) strain UTI89; conditions: read-out: Biofilm IC50
[1] = system: UTI89 chronically infected mice; assay: murine model of chronic UTI; assay type: in vivo; conditions: 50 mgkg^−1 p.o., 10% cyclodextrin, 6 h post-dosing
[2] = in vivo mouse PK, urine mannoside concentration; conditions: mice, 50 mgkg^−1 oral gavage, 10% cyclodextrin, 1 h post-dosing
[3] = i.v./p.o. crossover PK study in rat; assay type: in vivo

Chain of FimH lectin domain (P08191 22-179): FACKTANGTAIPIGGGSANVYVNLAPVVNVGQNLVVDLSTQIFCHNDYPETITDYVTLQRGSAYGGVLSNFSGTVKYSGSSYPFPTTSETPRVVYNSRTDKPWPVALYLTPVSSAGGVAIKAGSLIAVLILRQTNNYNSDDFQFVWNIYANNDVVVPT

Row | SMILES | DSF Tm (FimH lectin domain) [°C] | HAI (FimH) [µM] | IC50 (UPEC biofilm formation; biofilm prevention) [nM] | increase in activity in HA assay relative to 16 and 17, respectively (FimH; ortho-methyl matched pairs) | IC50 (UPEC biofilm formation; Escherichia coli) [nM] | additional drop in CFUs per bladder relative to 5, 7 (and 17b) [1] [fold] | initial urine concentration [2] | Rat F ([3]; 10 mgkg^−1 oral (p.o.) dose, 10% cyclodextrin formulation) [%] | Rat CL ([3]; calculated from a 10 mgkg^−1 oral (p.o.) dose, 10% cyclodextrin formulation) [mLmin^−1kg^−1] | half-life ([3]; rat, in vivo, po, 10 mgkg^−1) [h]
1 | COC(=O)c1cccc(-c2ccc(O[C@H]3O[C@H](CO)[C@@H](O)[C@H](O)[C@@H]3O)cc2)c1 [Compound 2] | 73.4 | 1.0 | 940 | – | – | – | – | – | – | –
2 | Cc1cc(-c2ccc3cc[nH]c(=O)c3c2)ccc1O[C@H]1O[C@H](CO)[C@@H](O)[C@H](O)[C@@H]1O [Compound 22, 2-methyl-4-(1-oxo-1,2-dihydroisoquinolin-7-yl)phenyl α-D-mannopyranoside] | 75.5 | 0.031 | – | fourfold | 130 | 10 | elevated relative to 5 | 7.0 | 408 | < 3
